In US20230270721A1, “INHIBITION OF BAX-MEDIATED CELL DEATH BY ELTROMBOPAG” (Albert Einstein College of Medicine, priority 2020, published 2023):

Experiments:
[1] = system: BAK-/- mouse embryonic fibroblasts (MEFs); experiment: Caspase 3/7 assay, STS-induced apoptosis, MEFs expressing only BAX; type: cell-based; details: 3 µM STS, 6 hr
From the text: FIGS. 7A, 7B, 7C, 7D, 7E, and 7F are a set of diagrams showing that eltrombopag inhibits BAX translocation and BAX-mediated apoptosis in cells. […] BAX translocation is based on antibody-based detection of BAX and mitochondrial protein TOMM20. Representative confocal micrographs from three independent biological experiments. Scale bar, 20 µm. […] Data represent ±SEM of three independent biological replicates. Two-sided t test, ****P < 0.0001; ***P < 0.001; **P < 0.01; *P < 0.05; ns, P > 0.05. […] Actin and VDAC are loading controls for cytosolic and mitochondrial fractions, respectively. FIGS. 7D and 7E show a caspase 3/7 assay of BAK-/- mouse embryonic fibroblasts (MEFs) (FIG. 7D) and BAX-/-MEFs (FIG. 7E) in response to 3 µM STS and the presence or absence of various doses of EO for 6 hr. […]
It is important to note that THPO-receptor agonist activity of EO is highly specific to the human and chimpanzee THPO-receptors, making mouse cell lines ideal for studying EO modulation of BAX-dependent activity independent of THPO-mediated effects (Erickson-Miller, C. L. et al. Stem Cells 27, 424-430 (2009)). First, mitochondrial cytochrome c release, a hallmark of BAX activation and BAX-dependent apoptosis, was evaluated. […] Next, mitochondrial translocation of cytosolic BAX upon treatment with either BIM BH3 or staurosporine (STS) in BAK KO MEFs was evaluated.

3T3 cells = experiment: Caspase 3/7 activation assay, ABT-263 + S63845; type: cell-based, murine; details: 1 µM ABT-263 and 1 µM S63845, 4 hr
Protocol: 3T3 cells were maintained in media identical to that of MEFs. 3T3 cells were seeded (1×10^4 cells/well) in 96-well opaque plates for 18-24 hr. The media was removed and replaced with media lacking FBS, and cells were treated with EO as a 10X stock in H2O at the indicated doses for 2 hr before addition of 10% FBS. Cells were then treated with 1 µM each of ABT-263 and S63845. Caspase 3/7 activation was measured at 4 hr by addition of the Caspase-Glo 3/7 chemiluminescence reagent in accordance with the manufacturer’s protocol (Promega). Luminescence was detected by an F200 PRO microplate reader (TECAN). Percentage caspase activation was normalized to ABT-263 + S63845 alone (100%) and untreated cells (0%). Viability assays were performed at 24 hr by addition of CellTiter-Glo according to the manufacturer’s protocol (Promega). Luminescence was detected by an F200 PRO microplate reader (TECAN). Percentage viability was normalized to untreated cells (100%).
Next, whether EO is capable of rescuing cell death in cells expressing both BAX and BAK was determined. 3T3 cells, a murine fibroblast cell line, were treated with a combination of BH3-mimetics navitoclax (ABT-263) and S63845, which only in combination cause significant cytotoxicity in fibroblast cells.

[2] = system: platelets of C57BL/6J mice; experiment: In vivo mouse platelet experiments; details: co-administration: ABT-263 25 mg/kg + EO 100 mg/kg then 50 mg/kg 3 hrs later, oral gavage, 24 hours
Protocol: Wild type black mice strain C57BL/6J were treated with vehicle, ABT-263 (25 mg/kg, single dose), EO (100 mg/kg, then 3 hrs later 50 mg/kg), or a combination of ABT-263 and EO. EO was formulated in dH2O, and ABT-263 was formulated in 10% ethanol, 30% polyethylene glycol 400, and 60% Phosal 50 PG. Both ABT-263 and EO were administered by oral gavage. Blood samples were collected by submandibular bleed before treatment and 24 hours following treatment, and CBC was acquired. Percentage platelet protection was calculated as follows: % Platelet Protection = (100)(Px - mPABT)/(mPv - mPABT) where Px is the platelet count for a given mouse, mPv is the mean vehicle treated platelet count, and mPABT is the mean ABT-263 treated platelet count. Statistical analysis was performed using one-way ANOVA with select multiple comparisons as shown.
Finally, whether EO can rescue thrombocytopenia induced by the activity of navitoclax was evaluated in mice. The use of navitoclax is limited by on-target toxicity triggering BAK/BAX-mediated platelet apoptosis (Zhang, H. et al. Cell Death Differ 14, 943-951 (2007)). […] This EO effect is distinct from its capacity to stimulate platelet production by differentiation of the megakaryocyte precursors and progenitor cells, which requires 5 days to begin (Erickson-Miller, C. L. et al. Stem Cells 27, 424-430 (2009); Jenkins, J. M. et al. Blood 109, 4739-4741 (2007)).

[3] = system: megakaryocyte precursors and progenitor cells; details: differentiation of megakaryocyte precursors and progenitor cells; cited from earlier work

## CC1=NN(c2ccc(C)c(C)c2)C(=O)/C1=N\Nc1cccc(-c2cccc(C(=O)O)c2)c1O [EO, eltrombopag]
[1]
  STS-induced apoptosis mediated by caspase 3/7 activity: inhibited STS-induced apoptosis
3T3 cells
  apoptosis mediated by caspase 3/7 activity: significant reduction of apoptosis
[2]
  navitoclax-induced platelet loss: markedly inhibited platelet loss to acceptable levels
[3]
  time for stimulation of platelet production to begin: 5 days
